From PMC10560226, “Triepoxide formation by a flavin-dependent monooxygenase in monensin biosynthesis” (Nature Communications, 2023)

Experiments:
[1] = target: MonCI (Streptomyces cinnamonensis); experiment: ITC; MicroCal ITC200, 25 °C, 100 mM phosphate pH 8.0; MonCI in the cell (60 μM with wild-type MonACPX 1.2 mM in the syringe; 100 μM with control ACP 1.0 mM in the syringe); 20 injections; one site model; performed twice
[2] = target: T1, MonCI (Streptomyces virginiae, UniProt Q846W9); experiment: X-ray crystal structure, […] Å; format: binding; details: noncovalently bound, co-purified; isoalloxazine ring in "in" conformation; pH 6.5-6.8 crystals
T1 construct: gene monC1; N-terminal 6xHis-tag, pCold vector, E. coli BL21-AI; model covers residues 4-480 (chain A), last residue 496
T1 sequence (Q846W9 1-496): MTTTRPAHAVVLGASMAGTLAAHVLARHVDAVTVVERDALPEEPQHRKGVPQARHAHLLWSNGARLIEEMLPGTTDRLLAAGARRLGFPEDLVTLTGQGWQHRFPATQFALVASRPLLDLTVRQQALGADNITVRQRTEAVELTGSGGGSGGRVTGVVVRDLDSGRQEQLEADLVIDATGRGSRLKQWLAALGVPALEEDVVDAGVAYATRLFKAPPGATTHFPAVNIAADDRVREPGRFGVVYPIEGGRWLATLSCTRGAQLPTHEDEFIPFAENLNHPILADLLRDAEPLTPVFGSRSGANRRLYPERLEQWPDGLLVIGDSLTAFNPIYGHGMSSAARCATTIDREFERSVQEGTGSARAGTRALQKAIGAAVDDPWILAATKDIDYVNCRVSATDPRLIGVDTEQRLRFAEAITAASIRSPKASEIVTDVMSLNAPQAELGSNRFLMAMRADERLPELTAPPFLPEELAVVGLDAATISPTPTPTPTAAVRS

[3] = target: T1, MonCI; experiment: HPLC of epoxide product; format: biochemical; details: electron donor, 4 mM; FHB 160 µM, Tris pH 8.0, 30 °C, 6 h
[4] = target: T1, MonCI; experiment: LC-MS of epoxide products; format: biochemical; details: 160 µM FHB, 15 µM MonCI, 80 µM FAD, Fre, NADH or NADH regeneration (glucose dehydrogenase), 50 mM Tris pH 8.0, 300 mM NaCl, 30 °C, 6 h

apo-DEBS ACP2 (domain or fragment)
Kd [1]: 49.8 µM

Cc1cc2nc3c(=O)[nH]c(=O)nc-3n(C[C@H](O)[C@H](O)[C@H](O)COP(=O)(O)OP(=O)(O)OC[C@H]3O[C@@H](n4cnc5c(N)ncnc54)[C@H](O)[C@@H]3O)c2cc1C [FAD]
X-ray crystal structure, 1.9 Å [2]: One FAD coenzyme and one chloride ion were found in each chain

NC(=O)C1=CN([C@@H]2O[C@H](COP(=O)(O)OP(=O)(O)OC[C@H]3O[C@@H](n4cnc5c(N)ncnc54)[C@H](O)[C@@H]3O)[C@@H](O)[C@H]2O)C=CC1 [NADH]
HPLC of epoxide product [3]: MonCI has similar preference for NADH and NADPH

wild-type apo-MonACPX (natural protein)
Kd [1]: 10.7 µM

CC(C)=CCCC(C)=CCCC(C)=CCOC(=O)c1ccc(O)cc1 [FHB, farnesyl 4-hydroxybenzoate]
LC-MS of epoxide products [4]: MonCI can perform multiple epoxidations on the same substrate molecule
